Experimental data reported in ChEMBL document CHEMBL2346515, “Discovery of 4-alkylamino-7-aryl-3-cyanoquinoline LRRK2 kinase inhibitors” (Bioorg Med Chem Lett, 2013).

How the values were obtained:
[1] = target: Leucine-rich repeat serine/threonine-protein kinase 2 (Homo sapiens, UniProt Q5S007); assay: Inhibition of wild type GST-tagged LRRK2 (970-2527 amino acids)(unknown origin) assessed as inhibition of LRRKtide phosphorylation by HTRF assay
MDCK = assay: Permeability in MDCK cells expressing MDR1; format: ADME, cell-based, Canis lupus familiaris; settings: dog
[2] = target: T1, Leucine-rich repeat serine/threonine-protein kinase 2 (Homo sapiens, UniProt Q5S007, G2019S); assay: Inhibition of LRRK2 G2019S mutant (unknown origin) Ser935 phosphorylation expressed in HEK293 cells by cell-based assay
T1 sequence (Q5S007 whole entry G2019S): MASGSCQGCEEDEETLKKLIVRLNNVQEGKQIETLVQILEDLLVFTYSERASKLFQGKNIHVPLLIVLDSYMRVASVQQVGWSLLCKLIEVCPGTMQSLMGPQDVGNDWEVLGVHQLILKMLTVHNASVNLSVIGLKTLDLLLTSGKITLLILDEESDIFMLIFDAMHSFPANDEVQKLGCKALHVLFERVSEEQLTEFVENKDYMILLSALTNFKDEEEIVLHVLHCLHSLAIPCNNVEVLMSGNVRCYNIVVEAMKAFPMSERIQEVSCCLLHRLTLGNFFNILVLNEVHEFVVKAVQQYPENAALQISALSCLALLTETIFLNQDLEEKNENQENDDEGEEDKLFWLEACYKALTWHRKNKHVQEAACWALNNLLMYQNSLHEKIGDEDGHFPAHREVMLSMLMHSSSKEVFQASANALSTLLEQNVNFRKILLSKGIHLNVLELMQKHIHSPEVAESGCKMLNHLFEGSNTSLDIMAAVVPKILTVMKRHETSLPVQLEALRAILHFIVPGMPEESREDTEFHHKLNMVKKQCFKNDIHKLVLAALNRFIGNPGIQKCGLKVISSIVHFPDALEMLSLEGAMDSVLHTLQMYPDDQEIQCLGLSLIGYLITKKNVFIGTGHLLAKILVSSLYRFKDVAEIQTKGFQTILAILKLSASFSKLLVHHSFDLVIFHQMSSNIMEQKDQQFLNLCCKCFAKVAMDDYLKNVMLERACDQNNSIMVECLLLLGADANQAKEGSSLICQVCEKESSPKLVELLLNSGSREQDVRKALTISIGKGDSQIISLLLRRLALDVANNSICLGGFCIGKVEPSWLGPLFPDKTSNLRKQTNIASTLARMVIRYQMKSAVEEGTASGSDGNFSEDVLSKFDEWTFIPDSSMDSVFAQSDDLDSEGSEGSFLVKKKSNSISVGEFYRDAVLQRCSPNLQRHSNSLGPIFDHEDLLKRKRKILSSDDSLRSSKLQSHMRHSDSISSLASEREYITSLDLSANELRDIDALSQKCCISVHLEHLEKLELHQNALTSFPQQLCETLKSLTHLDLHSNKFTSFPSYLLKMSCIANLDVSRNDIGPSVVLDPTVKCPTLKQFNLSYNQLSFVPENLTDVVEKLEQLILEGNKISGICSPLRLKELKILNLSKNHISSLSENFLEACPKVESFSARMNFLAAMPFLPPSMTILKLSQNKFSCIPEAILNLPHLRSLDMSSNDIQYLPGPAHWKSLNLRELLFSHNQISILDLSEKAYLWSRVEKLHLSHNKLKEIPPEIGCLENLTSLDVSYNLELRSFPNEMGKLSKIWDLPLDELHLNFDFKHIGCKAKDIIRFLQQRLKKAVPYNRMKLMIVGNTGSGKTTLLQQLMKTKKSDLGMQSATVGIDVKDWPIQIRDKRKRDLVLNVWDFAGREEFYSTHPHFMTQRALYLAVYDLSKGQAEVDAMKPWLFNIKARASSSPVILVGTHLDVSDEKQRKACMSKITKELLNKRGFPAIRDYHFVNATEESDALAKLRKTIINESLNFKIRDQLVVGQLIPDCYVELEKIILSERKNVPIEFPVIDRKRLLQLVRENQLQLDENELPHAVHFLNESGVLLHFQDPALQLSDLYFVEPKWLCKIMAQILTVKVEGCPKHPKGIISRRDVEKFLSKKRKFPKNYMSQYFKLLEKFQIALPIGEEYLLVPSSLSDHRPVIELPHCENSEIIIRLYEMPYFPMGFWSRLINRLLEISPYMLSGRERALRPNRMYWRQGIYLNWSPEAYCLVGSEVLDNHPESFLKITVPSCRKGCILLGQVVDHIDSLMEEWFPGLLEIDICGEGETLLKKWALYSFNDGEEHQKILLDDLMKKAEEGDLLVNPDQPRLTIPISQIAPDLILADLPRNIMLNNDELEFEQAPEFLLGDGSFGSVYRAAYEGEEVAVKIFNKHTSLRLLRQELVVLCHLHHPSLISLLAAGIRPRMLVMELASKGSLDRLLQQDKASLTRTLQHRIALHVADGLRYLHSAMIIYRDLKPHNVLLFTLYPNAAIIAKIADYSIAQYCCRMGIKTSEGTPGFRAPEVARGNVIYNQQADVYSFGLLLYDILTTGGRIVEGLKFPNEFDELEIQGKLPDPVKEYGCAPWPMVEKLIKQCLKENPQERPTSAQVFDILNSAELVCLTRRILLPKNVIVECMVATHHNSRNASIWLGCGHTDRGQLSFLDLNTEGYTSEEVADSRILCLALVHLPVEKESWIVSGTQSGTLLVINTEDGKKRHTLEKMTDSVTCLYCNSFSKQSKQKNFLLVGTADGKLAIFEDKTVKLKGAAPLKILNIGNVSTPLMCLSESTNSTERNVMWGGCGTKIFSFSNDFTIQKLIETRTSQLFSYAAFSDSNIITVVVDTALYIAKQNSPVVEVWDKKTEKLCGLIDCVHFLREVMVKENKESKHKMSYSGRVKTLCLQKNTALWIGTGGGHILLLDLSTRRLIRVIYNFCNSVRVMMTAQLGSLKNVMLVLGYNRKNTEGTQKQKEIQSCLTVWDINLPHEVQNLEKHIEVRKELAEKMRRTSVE

Brain = assay: Drug uptake in brain of MDR1 a/b(-/-) and P-gp competant wild-type FVB mouse at 1 mg/kg, iv after 5 mins; format: ADME, organism-based; design: dose 1 mg/kg, route intravenous; settings: in vivo
[3] = target: T1, Leucine-rich repeat serine/threonine-protein kinase 2; assay: Inhibition of GST-tagged LRRK2 G2019S mutant (970-2527 amino acids) (unknown origin) assessed as inhibition of LRRKtide phosphorylation by HTRF assay
[4] = target: Receptor-type tyrosine-protein kinase FLT3 (Homo sapiens) (UniProt P36888); assay: Inhibition of FLT3 (unknown origin) at 1 uM by single point assay
Sequence of Receptor-type tyrosine-protein kinase FLT3 (Homo sapiens) (P36888 whole entry): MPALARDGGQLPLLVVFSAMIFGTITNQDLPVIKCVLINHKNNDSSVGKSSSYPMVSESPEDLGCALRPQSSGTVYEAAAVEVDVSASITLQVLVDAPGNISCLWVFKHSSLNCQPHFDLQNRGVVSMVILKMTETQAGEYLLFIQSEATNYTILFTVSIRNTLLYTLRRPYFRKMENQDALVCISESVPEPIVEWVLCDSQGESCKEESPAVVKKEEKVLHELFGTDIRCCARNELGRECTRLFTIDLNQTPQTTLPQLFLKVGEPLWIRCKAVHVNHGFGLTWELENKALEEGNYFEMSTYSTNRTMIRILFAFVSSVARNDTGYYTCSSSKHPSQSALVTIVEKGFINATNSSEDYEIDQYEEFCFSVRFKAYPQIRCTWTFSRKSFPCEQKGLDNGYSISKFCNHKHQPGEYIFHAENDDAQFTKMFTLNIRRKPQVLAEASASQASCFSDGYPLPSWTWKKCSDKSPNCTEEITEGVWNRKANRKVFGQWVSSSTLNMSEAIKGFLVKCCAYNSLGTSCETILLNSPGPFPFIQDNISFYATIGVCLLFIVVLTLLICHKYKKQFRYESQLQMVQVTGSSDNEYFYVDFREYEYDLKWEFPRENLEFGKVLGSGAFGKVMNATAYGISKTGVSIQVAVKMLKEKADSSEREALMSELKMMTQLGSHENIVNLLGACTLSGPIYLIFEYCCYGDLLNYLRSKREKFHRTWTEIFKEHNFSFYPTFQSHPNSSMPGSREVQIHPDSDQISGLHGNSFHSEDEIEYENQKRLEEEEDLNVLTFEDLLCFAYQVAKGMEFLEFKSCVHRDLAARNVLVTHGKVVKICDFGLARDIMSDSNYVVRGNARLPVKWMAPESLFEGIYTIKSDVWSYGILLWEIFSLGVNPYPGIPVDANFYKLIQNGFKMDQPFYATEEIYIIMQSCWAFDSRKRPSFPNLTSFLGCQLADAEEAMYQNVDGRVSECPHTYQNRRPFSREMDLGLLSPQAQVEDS

[5] = target: Platelet-derived growth factor receptor alpha (Homo sapiens) (UniProt P16234); assay: Inhibition of PDGFRalpha (unknown origin) at 1 uM by single point assay
[6] = target: Cyclin-dependent kinase 1/cyclin B1 (Homo sapiens) (UniProt P06493+P14635); assay: Inhibition of CDK1/cyclin B (unknown origin) at 1 uM by single point assay; format: protein-complex assay
[7] = target: PI3-kinase p110-alpha/p85-alpha (Homo sapiens) (UniProt P27986+P42336); assay: Inhibition of PIK3CA/PIK3R1 (unknown origin) at 1 uM by single point assay; format: protein-complex assay
[8] = target: Tyrosine-protein kinase ABL1 (Homo sapiens) (UniProt P00519); assay: Inhibition of ABL1 (unknown origin) at 1 uM by single point assay
[9] = target: Mitogen-activated protein kinase 1 (Homo sapiens) (UniProt P28482); assay: Inhibition of MAPK1 (unknown origin) at 1 uM by single point assay
[10] = target: Tyrosine-protein kinase Lck (Homo sapiens) (UniProt P06239); assay: Inhibition of LCK (unknown origin) at 1 uM by single point assay
[11] = target: Serine/threonine-protein kinase MARK2 (Homo sapiens) (UniProt Q7KZI7); assay: Inhibition of MARK2 (unknown origin) at 1 uM by single point assay
[12] = target: RAC-alpha serine/threonine-protein kinase (Homo sapiens) (UniProt P31749); assay: Inhibition of AKT1 (unknown origin) at 1 uM by single point assay
[13] = target: T2, Dual specificity protein kinase TTK (Homo sapiens) (UniProt P33981); assay: Inhibition of TTK (unknown origin) at 1 uM by single point assay
T2 sequence (whole entry): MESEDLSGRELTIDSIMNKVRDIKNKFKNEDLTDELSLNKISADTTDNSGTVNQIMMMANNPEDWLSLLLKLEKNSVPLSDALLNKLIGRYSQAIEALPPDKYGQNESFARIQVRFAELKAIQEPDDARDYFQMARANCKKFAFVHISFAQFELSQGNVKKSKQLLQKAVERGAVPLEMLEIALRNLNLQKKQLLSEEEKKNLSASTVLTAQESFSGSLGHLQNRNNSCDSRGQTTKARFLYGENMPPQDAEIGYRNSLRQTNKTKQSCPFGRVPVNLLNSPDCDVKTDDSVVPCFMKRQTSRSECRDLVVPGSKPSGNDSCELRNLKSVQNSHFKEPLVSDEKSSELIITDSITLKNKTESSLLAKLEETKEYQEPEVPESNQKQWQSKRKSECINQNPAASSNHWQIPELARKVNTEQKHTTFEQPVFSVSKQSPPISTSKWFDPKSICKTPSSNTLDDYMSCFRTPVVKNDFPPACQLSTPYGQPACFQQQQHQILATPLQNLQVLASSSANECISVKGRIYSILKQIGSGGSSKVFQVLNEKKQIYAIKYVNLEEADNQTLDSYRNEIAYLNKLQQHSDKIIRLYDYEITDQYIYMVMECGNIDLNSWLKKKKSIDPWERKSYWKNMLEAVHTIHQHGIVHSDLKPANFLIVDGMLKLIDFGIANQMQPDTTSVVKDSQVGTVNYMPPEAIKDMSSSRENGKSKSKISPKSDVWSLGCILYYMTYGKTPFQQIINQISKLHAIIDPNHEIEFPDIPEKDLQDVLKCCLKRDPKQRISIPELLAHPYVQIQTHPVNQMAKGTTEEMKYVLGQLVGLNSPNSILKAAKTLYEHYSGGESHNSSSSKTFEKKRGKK

[14] = target: RAF proto-oncogene serine/threonine-protein kinase (Homo sapiens) (UniProt P04049); assay: Inhibition of RAF1 (unknown origin) at 1 uM by single point assay
[15] = target: Cyclin-dependent kinase 5/CDK5 activator 1 (Homo sapiens) (UniProt Q00535+Q15078); assay: Inhibition of CDK5/p25 (unknown origin) at 1 uM by single point assay; format: protein-complex assay
[16] = target: T3, Serine/threonine-protein kinase Chk1 (Homo sapiens) (UniProt O14757); assay: Inhibition of CHK1 (unknown origin) at 1 uM by single point assay
T3 sequence (whole entry): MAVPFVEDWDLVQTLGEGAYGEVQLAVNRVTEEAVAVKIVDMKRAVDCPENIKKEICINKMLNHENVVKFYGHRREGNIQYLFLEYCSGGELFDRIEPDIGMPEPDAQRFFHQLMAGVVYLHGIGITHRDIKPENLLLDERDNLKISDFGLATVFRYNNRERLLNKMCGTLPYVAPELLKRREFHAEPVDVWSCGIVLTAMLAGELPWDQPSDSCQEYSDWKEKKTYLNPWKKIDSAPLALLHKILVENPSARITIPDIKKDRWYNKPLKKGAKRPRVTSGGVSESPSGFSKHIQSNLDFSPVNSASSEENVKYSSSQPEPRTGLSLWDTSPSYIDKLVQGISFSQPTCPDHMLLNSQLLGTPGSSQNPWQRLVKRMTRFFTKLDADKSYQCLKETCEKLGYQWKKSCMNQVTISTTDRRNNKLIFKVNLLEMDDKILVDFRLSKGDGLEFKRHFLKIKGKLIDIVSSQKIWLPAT

[17] = target: Receptor tyrosine-protein kinase erbB-4 (Homo sapiens) (UniProt Q15303); assay: Inhibition of ErbB4 (unknown origin) at 1 uM by single point assay
Sequence of Receptor tyrosine-protein kinase erbB-4 (Homo sapiens) (Q15303 whole entry): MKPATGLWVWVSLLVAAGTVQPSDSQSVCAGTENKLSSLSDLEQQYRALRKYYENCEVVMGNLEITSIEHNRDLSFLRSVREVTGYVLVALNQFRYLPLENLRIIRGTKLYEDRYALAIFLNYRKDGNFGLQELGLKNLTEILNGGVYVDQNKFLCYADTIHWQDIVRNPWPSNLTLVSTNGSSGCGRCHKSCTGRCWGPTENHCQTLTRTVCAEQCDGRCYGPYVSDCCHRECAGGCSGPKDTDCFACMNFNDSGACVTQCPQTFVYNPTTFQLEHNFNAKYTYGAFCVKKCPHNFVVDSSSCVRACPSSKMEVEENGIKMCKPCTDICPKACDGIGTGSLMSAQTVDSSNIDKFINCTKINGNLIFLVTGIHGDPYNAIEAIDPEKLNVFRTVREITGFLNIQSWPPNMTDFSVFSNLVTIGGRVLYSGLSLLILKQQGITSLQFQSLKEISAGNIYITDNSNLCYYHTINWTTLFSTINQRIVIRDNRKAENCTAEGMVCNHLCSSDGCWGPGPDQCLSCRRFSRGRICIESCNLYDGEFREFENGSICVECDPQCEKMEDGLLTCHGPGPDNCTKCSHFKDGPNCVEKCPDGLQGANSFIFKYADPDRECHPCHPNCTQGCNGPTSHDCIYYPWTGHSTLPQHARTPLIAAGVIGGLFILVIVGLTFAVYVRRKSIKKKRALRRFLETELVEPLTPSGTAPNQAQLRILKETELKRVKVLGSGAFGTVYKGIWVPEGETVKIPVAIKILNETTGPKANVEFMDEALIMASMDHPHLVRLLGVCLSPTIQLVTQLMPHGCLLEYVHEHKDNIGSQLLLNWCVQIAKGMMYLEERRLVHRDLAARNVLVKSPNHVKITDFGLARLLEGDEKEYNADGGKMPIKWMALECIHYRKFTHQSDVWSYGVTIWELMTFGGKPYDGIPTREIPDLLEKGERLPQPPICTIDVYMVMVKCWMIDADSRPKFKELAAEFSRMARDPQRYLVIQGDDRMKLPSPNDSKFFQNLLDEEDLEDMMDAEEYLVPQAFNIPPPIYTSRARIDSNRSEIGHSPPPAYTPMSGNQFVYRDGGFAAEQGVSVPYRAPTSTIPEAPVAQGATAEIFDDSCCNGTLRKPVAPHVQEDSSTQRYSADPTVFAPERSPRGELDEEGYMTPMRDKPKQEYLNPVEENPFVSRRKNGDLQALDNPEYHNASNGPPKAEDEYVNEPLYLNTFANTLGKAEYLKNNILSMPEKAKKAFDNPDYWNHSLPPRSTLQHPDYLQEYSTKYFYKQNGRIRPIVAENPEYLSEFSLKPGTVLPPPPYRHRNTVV

Sequence of Leucine-rich repeat serine/threonine-protein kinase 2 (Homo sapiens, UniProt Q5S007) (Q5S007 whole entry, the tested form may be a part): as the sequence (Q5S007 whole entry G2019S) above, with S2019G counted along it

Row | SMILES | IC50 [1] | permeability (MDCK) | EC50 [2] | Drug uptake (Brain) | IC50 [3] | inhibition [4] | inhibition [5] | inhibition [6] | inhibition [7] | inhibition [8] | inhibition [9] | inhibition [10] | inhibition [11] | inhibition [12] | inhibition [13] | inhibition [14] | inhibition [15] | inhibition [16] | inhibition [17]
1 | C[C@@H](Nc1c(C#N)cnc2cc(-c3ccc(-n4ccoc4=O)cc3)ccc12)C1CC1 | 0.048 µM | impermeable | 0.731 µM | Active | 0.027 µM |  |  |  |  |  |  |  |  |  |  |  |  |  | 
2 | CC(C)Nc1c(C#N)cnc2cc(-c3ccc(S(C)(=O)=O)cc3)ccc12 | 0.031 µM | impermeable | 0.435 µM | Active | 0.028 µM | 16% | 33% | 12% | -2% | 39% | 10% | 26% | 52% | 10% | -4% | 3% | 16% | 36% | 19%
3 | CC(C)Nc1c(C#N)cnc2cc(-c3cnn(C)c3)ccc12 | 0.007 µM | impermeable | 0.14 µM | Active | 0.005 µM | 84% | 30% | 14% | 22% | 55% | -2% | 31% | 64% | 0% | -9% | 12% | 12% | 64% | 5%
